# From patent publication US8791100B2 (Novartis AG, priority 2010, dated 2014)
# Experiments:
# [1] = test system: peripheral lymphocyte counts; assay: Measurement of circulating lymphocytes after oral administration (rats); type: in vivo; conditions: Lewis rats, 30 mg/kg p.o., vs mean counts of untreated animals, mean ± STDEV
# Experimental: (§1) The compounds of the invention, e.g. compounds of formula (I) typically induce the depletion of blood lymphocyte as may be determined in the assay described below. Moreover, compounds of the invention, e.g. compounds of formula (I) are typically efficacious in the said assay also when administered via the per oral route of administration.
# (§2) Measurement of Circulating Lymphocytes:
# (§3) The test compounds (or salts thereof) are dissolved in a vehicle such as water, saline, PEG (polyethylene glycol) 200, or PBS (phosphate buffered saline). Adult mice (C57BU6NCrl strain, female, 18-20 g) or rats (Lewis strain, male, 6-12 weeks old) are administered up to 60 mg/kg of the test compounds in 10 ml/kg (C57BU6NCrl mice) or 2 ml/kg (Lewis rats) vehicle via per oral application. The vehicle or a reference salt and FTY720 (0.3 mg/kg) are used as negative and positive controls, respectively. Blood is collected from the sublingual vein at single time points, e.g. 14 or 24 hours after the test compound administration, under short isoflurane anesthesia. Two to three animals are used in each group. Whole blood samples are subjected to hematology analysis. Peripheral lymphocyte counts are determined using an automated analyzer. The Haemathology System uses a combination of light scatter, cytochemical staining and nuclear density on two independent channels to measure the total and differential white cell counts. The reduction of lymphocytes provoked by each test compound is calculated by comparing the lymphocyte counts measured after each treatment to the mean lymphocyte counts measured in five to eight untreated mice or rats, respectively. The data are presented as mean±STDEV.
# human S1P1 receptors = human S1P1 receptors (Homo sapiens (Human), UniProt P21453); assay: Human S1P1 Receptor Calcium FLIPR Antagonist Assay (HeLa Gα16 S1P1); type: cell-based; conditions: relative antagonism vs probing agonist GNF-AC-1 at EC80, HeLa-S1P1/Gα16 cells
# Chain of human S1P1 receptors (P21453 whole entry): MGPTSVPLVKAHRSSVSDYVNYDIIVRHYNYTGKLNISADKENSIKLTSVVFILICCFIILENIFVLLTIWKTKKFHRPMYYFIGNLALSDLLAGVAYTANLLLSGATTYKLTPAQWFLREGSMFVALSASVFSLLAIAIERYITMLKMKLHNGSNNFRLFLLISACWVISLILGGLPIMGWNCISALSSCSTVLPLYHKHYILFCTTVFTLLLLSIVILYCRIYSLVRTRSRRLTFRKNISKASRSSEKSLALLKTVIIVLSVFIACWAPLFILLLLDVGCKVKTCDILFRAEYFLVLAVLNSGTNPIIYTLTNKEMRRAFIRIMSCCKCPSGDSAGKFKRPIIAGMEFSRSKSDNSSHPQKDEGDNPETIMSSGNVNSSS
# From the text: Human S1P1 Receptor Calcium FLIPR Antagonist Assay
# The assay measures intracellular changes of Ca^2+ mediated by the synthetic probing agonist 3-{[2-(2-Trifluoromethyl-biphenyl-4-yl)-benzo[b]thiophen-5-ylmethyl]-amino}-propionic acid (GNF-AC-1) in the HeLa-S1P1/Gα16 cell clone 1: HeLa (human cervix carcinoma, ATCC CCL2) cells stably expressing N-terminally myc-tagged human S1P1 receptors (GenBank™ accession No. NM_001400; UNIPROT P21453) and promiscuous Gα16 protein (GenBank™ accession number M63904, Swissprot P30679) are cultured at 37° C., 5% CO2, and 95% relative humidity. The cells are plated in 384 well black plates (10′000 cells per well). After 24 hours the cells are loaded with Fluo-4-AM (1.6 μM in HBSS and 2.5 mM probenicid) for 1 hour at 37° C. After washing, the cells are transferred to the FLIPR. The test compounds are added at different concentrations (≦100 μM) in HBSS in the presence of 0.1% BSA and changes in fluorescence are recorded (indication of agonism). The probing agonist is added 20-30 minutes afterwards to the wells at a concentration giving 80% of the maximal activity (EC80). After each addition, time points are collected as follows: 20 time points (2 seconds) before the addition of the agonist (Fmin) and 60 time points (1 or 2 seconds) after the addition of the probing agonist. This allows the determination of the maximal fluorescence (Fmax). The ratio (Fmax−Fmin)/Fmin is plotted against the log of the concentration of the test compounds and the IC50 (relative antagonism) is calculated using the XLfit-4 software. […] A concentration-response curve of the probing agonist is determined on each plate in parallel.
# [2] = test system: peripheral lymphocyte counts; assay: Measurement of circulating lymphocytes after oral administration (mice); type: in vivo; conditions: Mus musculus, C57BL/6NCrl mice, 30 mg/kg p.o., 24 hours, vs mean counts of untreated animals, mean ± STDEV, read-out: Residual Lymphocyte Counts 24 hours after p.o. dosing
# Experimental: as §1, §2, §3
structure (smiles),measurement,setting,value
"Cc1cc([C@H](Nc2cc(CN3CC[C@@H](C(=O)O)C3)c(Cl)cn2)C(F)(F)F)ccc1Cl [Example 84, (R)-1-{5-Chloro-2-[(S)-1-(4-chloro-3-methyl-phenyl)-2,2,2-trifluoro-ethylamino]-pyridin-4-ylmethyl}-pyrrolidine-3-carboxylic acid]",Residual Lymphocyte Counts 24 hours after p.o. dosing,[1],16.8% ± 7.2
same,IC50,human S1P1 receptors,0.4 nM
"CC[C@@H](Nc1ccc(C)c(CN2CC[C@@H](C(=O)O)C2)c1C)c1ccc(Cl)c(C)c1 [Example 32, (R)-1-{3-[(R)-1-(4-Chloro-3-methyl-phenyl)-propylamino]-2,6-dimethyl-benzyl}-pyrrolidine-3-carboxylic acid]",response vs control in vivo at 30 mg/kg,[2],17%
same,IC50,human S1P1 receptors,0.8 nM
"CC[C@@H](Nc1ccc(C)c(CN2CC[C@@H](C(=O)O)C2)c1)c1cc(C)c(Cl)c(C)c1 [Example 42, (R)-1-{5-[(R)-1-(4-Chloro-3,5-dimethyl-phenyl)-propylamino]-2-methyl-benzyl}-pyrrolidine-3-carboxylic acid]",response vs control in vivo at 30 mg/kg,[2],19.4%
same,Residual Lymphocyte Counts 24 hours after p.o. dosing,[1],22.2% ± 6.7
same,IC50,human S1P1 receptors,1 nM
"CCc1ccc(N[C@@H](c2ccc(Cl)c(C)c2)C(F)(F)F)cc1CN1CC[C@@H](C(=O)O)C1 [Example 34, (R)-1-{5-[(S)-1-(4-Chloro-3-methyl-phenyl)-2,2,2-trifluoro-ethylamino]-2-ethyl-benzyl}-pyrrolidine-3-carboxylic acid]",response vs control in vivo at 30 mg/kg,[2],24.2%
same,IC50,human S1P1 receptors,0.8 nM
"CC[C@@H](Nc1ccc(Cl)c(CN2CC(C(=O)O)C2)c1)c1ccc(Cl)c(C)c1 [Example 62, 1-{2-Chloro-5-[(R)-1-(4-chloro-3-methyl-phenyl)-propylamino]-benzyl}-azetidine-3-carboxylic acid]",response vs control in vivo at 30 mg/kg,[2],31.5%
same,IC50,human S1P1 receptors,0.9 nM
"Cc1cc([C@H](Nc2ccc(C)c(CN3CC(C(=O)O)C3)c2C)C(F)(F)F)ccc1Cl [Example 31, 1-{3-[(S)-1-(4-Chloro-3-methyl-phenyl)-2,2,2-trifluoro-ethylamino]-2,6-dimethyl-benzyl}-azetidine-3-carboxylic acid]",response vs control in vivo at 30 mg/kg,[2],23.4%
same,IC50,human S1P1 receptors,1 nM
"Cc1cc([C@H](Nc2ccc(Cl)c(CN3CC[C@@H](C(=O)O)C3)c2)C(F)(F)F)ccc1Cl [Example 29, (R)-1-{2-Chloro-5-[(S)-1-(4-chloro-3-methyl-phenyl)-2,2,2-trifluoro-ethylamino]-benzyl}-pyrrolidine-3-carboxylic acid]",response vs control in vivo at 30 mg/kg,[2],35.6%
same,IC50,human S1P1 receptors,0.4 nM
"CC[C@@H](Nc1ccc(Cl)c(CN2CC[C@@H](C(=O)O)C2)c1)c1cc(C)c(Cl)c(C)c1 [Example 43, (R)-1-{2-Chloro-5-[(R)-1-(4-chloro-3,5-dimethyl-phenyl)-propylamino]-benzyl}-pyrrolidine-3-carboxylic acid]",response vs control in vivo at 30 mg/kg,[2],21.8%
same,IC50,human S1P1 receptors,0.8 nM
"Cc1cc([C@H](Nc2cc(CNCCC(=O)O)c(Cl)cn2)C(F)(F)F)ccc1Cl [Example 85, 3-({5-Chloro-2-[(S)-1-(4-chloro-3-methyl-phenyl)-2,2,2-trifluoro-ethylamino]-pyridin-4-ylmethyl}-amino)-propionic acid]",Residual Lymphocyte Counts 24 hours after p.o. dosing,[1],11.6% ± 0.3
same,IC50,human S1P1 receptors,0.9 nM
"Cc1cc([C@H](Nc2ccc(C)c(CN3CC[C@@H](C(=O)O)C3)c2C)C(F)(F)F)ccc1Cl [Example 30, (R)-1-{3-[(S)-1-(4-Chloro-3-methyl-phenyl)-2,2,2-trifluoro-ethylamino]-2,6-dimethyl-benzyl}-pyrrolidine-3-carboxylic acid]",response vs control in vivo at 30 mg/kg,[2],19.4%
same,Residual Lymphocyte Counts 24 hours after p.o. dosing,[1],26.9 ± 13.0%
same,IC50,human S1P1 receptors,0.9 nM
"CC[C@@H](Nc1cc(CN2CC[C@@H](C(=O)O)C2)c(Cl)cn1)c1ccc(Cl)c(C)c1 [Example 55, (R)-1-{5-Chloro-2-[(R)-1-(4-chloro-3-methyl-phenyl)-propylamino]-pyridin-4-ylmethyl}-pyrrolidine-3-carboxylic acid]",response vs control in vivo at 30 mg/kg,[2],43.6%
same,IC50,human S1P1 receptors,0.5 nM
"CC[C@@H](Nc1ccc(Cl)c(CN2CC(C(=O)O)C2)c1)c1cc(C)c(Cl)c(C)c1 [Example 61, 1-{2-Chloro-5-[(R)-1-(4-chloro-3,5-dimethyl-phenyl)-propylamino]-benzyl}-azetidine-3-carboxylic acid]",response vs control in vivo at 30 mg/kg,[2],16.2%
same,IC50,human S1P1 receptors,1.6 nM
"Cc1cc([C@H](Nc2ccc(C)c(CN3CC[C@@H](C(=O)O)C3)c2)C(F)(F)F)ccc1Cl [Example 21, (R)-1-{5-[(S)-1-(4-Chloro-3-methyl-phenyl)-2,22-trifluoro-ethylamino]-2-methyl-benzyl}-pyrrolidine-3-carboxylic acid]",response vs control in vivo at 30 mg/kg,[2],17.8%
same,IC50,human S1P1 receptors,1 nM
